The values that follow are results of earlier work, collected in patent publication US8772287B2, “Pyrimidinyl and 1,3,5-triazinyl benzimidazole sulfonamides and their use in cancer therapy” (VetDC, Inc., priority 2009, dated 2014).

For the data set, the system named is human tumor xenografts. To be noted: mouse, in vivo; cited from earlier work.

Turning to `O=c1cc(N2CCOCC2)oc2c(-c3ccccc3)cccc12` [LY294002], the tolerability result is listed as “well-tolerated”.
